Data on 3 molecules can be found in US10809252B2, “Time-resolved fluorescent immunochromatographic assay rapid test kit for type I pyrethroid” (priority 2017, dated 2020).

Assay [1] relates to universal monoclonal antibody against type I pyrethroid (hybridoma cell line QW8#). Nature of the assay: conventional indirect competitive ELISA. Type of assay: binding, mouse. From the text: To screen the target positive hybridoma cell line that is a highly specific and sensitive cell line against pyrethroid containing a diphenyl ether structure (by screening with etofenprox standard), the traditional two-step screening method was modified in this experiment. A gradient screening method was used in the indirect competitive ELISA screening process. (1) In the first step, an indirect non-competitive ELISA was used to screen the positive wells that recognized the diphenyl ether structure, but not the carrier protein (BSA). […] The positive wells with relatively small B/B0 were selected, where B is the absorbance in the control well […] etofenprox standard, and B0 is the absorbance in the wells with etofenprox standard. The cells were cloned by limiting dilution, and detected about 10 days after the cloning by using the same two-step method as described above. […]
The affinity for QW8# was determined by indirect non-competitive ELISA. […] The OD450 values measured was used as the vertical coordinates, the values of the logarithm of the antibody concentrations (mol/L) were used as the horizontal coordinates, 4 S-shaped curves corresponding to the 4 concentrations were plotted. […]
(In general: An ELISA detects its analyte on a solid surface through an enzyme-linked reagent.)

The subject of the next assay is Hapten-1-BSA. Nature of the assay: affinity constant (Ka) of the antibody by indirect non-competitive ELISA. Type of assay: binding. The settings on record: antibody derived from mouse ascetic fluid; plate coated with Hapten-1-BSA at 2.0, 1.0, 0.5, 0.25 μg/mL. On the procedure: The affinity for QW8# was determined by indirect non-competitive ELISA. The plate was coated at 37° C. for 2 hours with Hapten-1-BSA at concentrations of 2.0, 1.0, 0.5, and 0.25 μg/mL in an amount of 100 μL/well. After the plate was blocked with a blocking solution for 1 hour, the antibody diluted with PBS (at a dilution factor of 1:2) was added to the plate and the rest steps were the same as those in indirect non-competitive ELISA. The OD450 values measured was used as the vertical coordinates, the values of the logarithm of the antibody concentrations (mol/L) were used as the horizontal coordinates, 4 S-shaped curves corresponding to the 4 concentrations were plotted. The maximum OD value (ODmax) at the top of each S-curve, that is, the concentration of the antibody that corresponds to 50% of the ODmax, was obtained from each curve. The 4 concentrations were paired, and the affinity constant (Ka) of the antibody was calculated by using the formula Ka=(n−1)/2(n[Ab′]t−[Ab]t), where [Ab′]t, and [Ab]t are antibody concentrations corresponding to 50% of two ODmax values in each group, and n is the multiple of the antigen concentration coated in each group.

On to `CCOc1ccc(C(C)(C)COCc2cccc(Oc3ccccc3)c2)cc1` [etofenprox], for which the “IC50 value of the universal monoclonal antibody” value in assay [1] came out at 0.02086 µg/mL.

`CC1(C)C(C=C(Cl)Cl)C1C(=O)OCc1cccc(Oc2ccccc2)c1` (stereo not drawn) [permethrin]: in assay [1], the “IC50 value of the universal monoclonal antibody” value is 0.0242 µg/mL.

B1: QW8#: universal monoclonal antibody against type I pyrethroid secreted by hybridoma cell line QW8# (CCTCC C2016164), subtype IgG2a (antibody, V domains shown)
VH: QVTLKESGPGILQPSQTLSLTCSFSGFSLSTYGIGIGWIRQSSGRGLEWLAHIWWNDNRYYNIALKSRLTISKDASNNQFFLKLASVDTADIATYYCVRGYGRPFYAMDYWGQGTTVTVSS
VL: QAVVTQESALTTSPGETVTLTCRSSTGAVTTSNYVNWVQEKPDHLFTGLIGGTNNRGPGVPARFSGSLIGDKAALTITGTQTEDEAIYFCALWYSNHWVFGGGTKLTVL
In the case of B1, the “affinity (affinity constant Ka) of the antibody” value in the assay with Hapten-1-BSA was determined as 2.16e+08 L/mol.
